Tests used:
Assay type in all cases: cell-based
[1] = tested on: SDH-A (succinate dehydrogenase-A); experiment: Mitochondria toxicity assay with PC3 cells, in-cell ELISA SDH-A; conditions: 5 days treatment
In short: (§1)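 This in-cell ELISA was run on fixed, permeabilized PC3 cells after 5-day exposure to titrated compound, with cytotoxicity measured on a duplicate plate. Results are reported as categories A (<1.0 μM) to E (>100.0 μM).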

[2] = tested on: PC3 cells; experiment: Mitochondria toxicity assay with PC3 cells, cytotoxicity (Cell Titer Glo); conditions: Homo sapiens, PC-3, 120 h, 5 days treatment
In short: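 Cytotoxicity reported in μM bins, A <1.0 through E >100.0. Measured via Cell Titer Glo luminescence (30 min, room temperature) after 5-day dose-titration treatment of PC3 cells, grown in F-12K/10% FBS, at 37° C, 5% CO2.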

[3] = tested on: THP1-Dual KO-TREX1 cells; experiment: THP1 TREX1 KO inhibition assay (type 1 interferon response); conditions: Homo sapiens, 144 h, type 1 interferon (QUANTI-LUC), 1 μM 5-aza-2′-deoxycytidine, six days
Procedure: Exemplary compounds were tested for their ability to alter the type 1 interferon response in THP1 Dual TREX1 KG cells treated with 5-aza-2′-deoxycytidine. Assay procedures and results are described below.
THP1 Dual TREX1 KG cells were purchased from Invivogen. The THP1-Dual™ KO-TREX1 cells were cultured in RPMI 1640, 10% heat-inactivated fetal bovine serum, 25 mM HEPES, 10 μg/mL blasticidin, and 100 μg/mL zeocin. THP1-Dual™ KO-TREX1 cells were treated with a dose titration of a test compound alone or in the presence of 1 μM 5-aza-2′-deoxycytidine (Sigma-Aldrich, cat #189825). Type 1 Interferon and cell viability were assessed after six days of treatment.
Stock solution of the test compound was prepared in DMSO followed by a three-fold dilution in DMSO. Additional 50× dilution was prepared in cell culture media for each dilution. 10 μL of diluted test compound was then added to a 96-well plate.
THP1-Dual™ KO-TREX1 cells were treated with either 1×PBS or 1 μM 5-aza-2′-deoxycytidine. […] of the THP1-Dual™ KO-TREX1 cells from either treatment were added to each well of the 96-well plate containing the test compound titration at 50,000 cells/well. Cells were incubated at 37° C., 5% CO2 in a humidified incubator for six days. Cells treated with 1 μM 5-aza-2′-deoxycytidine were added at the same density as above and incubated at 37° C., 5% CO2 in a humidified incubator for six days. On day six, 25 μL of cell supernatant was transferred to a 96-well white-walled plate, followed by addition to each well of 50 μL of QUANTI-LUC solution containing stabilizer. Luminescence was detected on a plate reader according to the manufacturer's instructions.
The remaining cells were assessed for cell viability by adding 25 μL of CellTiter-Glo (Promega, G9683) solution to each well, and being placed on a shaker for 10 minutes at room temperature. Luminescence was detected on a plate reader, according to the manufacturer's instructions.
In the tables “A” represents values≤0.050 μM; “B” represents values from >0.050 μM to ≤0.100 μM; “C” represents values from >0.100 μM to ≤0.250 μM; “D” represents values from >0.250 μM to ≤1 μM; “E” represents values>1 μM; and “NT”=not tested: […]

[4] = Mitochondria toxicity assay with PC3 cells, in-cell ELISA COX-1; conditions: 5 days treatment
In short: as §1

Structure (SMILES)	IC50 [1] [µM]	IC50 [2] [µM]	IC50 [3] [µM]	IC50 [4] [µM]
C=C[C@]1(CO)O[C@@H](n2cnc3c(=O)[nH]c(N)nc32)[C@@H](F)[C@@H]1O [Compound 63, 2-amino-9-[(2R,3S,4R,5R)-5-ethenyl-3-fluoro-4-hydroxy-5-(hydroxymethyl)oxolan-2-yl]-1H-purin-6-one]	10 to 50	10 to 50	> 1	10 to 50
CC[C@]1(CO)O[C@@H](n2cnc3c(N)nc(F)nc32)C[C@@H]1O [Compound 64, (2R,3S,5R)-5-(6-amino-2-fluoro-9H-purin-9-yl)-2-ethyl-2-(hydroxymethyl)tetrahydrofuran-3-ol]	< 1	< 1	> 1	< 1
Nc1nc(=O)n([C@H]2C[C@H](O)[C@](CO)(C(F)F)O2)cc1F [Compound 65, 4-amino-1-[(2R,4S,5R)-5-(difluoromethyl)-4-hydroxy-5-(hydroxymethyl)oxolan-2-yl]-5-fluoropyrimidin-2-one]	> 100	> 100	0.25 to 1	> 100
Nc1nc(=O)n([C@H]2C[C@H](O)[C@](CO)(C(F)(F)F)O2)cc1F [Compound 66, 4-amino-5-fluoro-1-((2R,4S,5R)-4-hydroxy-5-(hydroxymethyl)-5-(trifluoromethyl)tetrahydrofuran-2-yl)pyrimidin-2(1H)-one]	> 100	> 100	> 1	> 100
CC[C@]1(CO)O[C@@H](n2cnc3c(=O)[nH]c(N)nc32)[C@@H](F)[C@@H]1O [Compound 68, 2-amino-9-((2R,3S,4R,5R)-5-ethyl-3-fluoro-4-hydroxy-5-(hydroxymethyl)tetrahydrofuran-2-yl)-1,9-dihydro-6H-purin-6-one]	10 to 50	10 to 50	> 1	10 to 50
C=C[C@]1(CO)O[C@@H](n2cnc3c(=O)[nH]c(N)nc32)C[C@@H]1O [Compound 69]	1 to 10	1 to 10	> 1	1 to 10
Nc1nc2c(ncn2[C@@H]2O[C@@](CO)(CCl)[C@@H](O)[C@@H]2F)c(=O)[nH]1 [Compound 70, 2-amino-9-((2R,3S,4R,5R)-5-(chloromethyl)-3-fluoro-4-hydroxy-5-(hydroxymethyl)-tetrahydrofuran-2-yl)-1,9-dihydro-6H-purin-6-one]	10 to 50	10 to 50	> 1	10 to 50
C=C[C@]1(CO)O[C@@H](n2cc(F)c(N)nc2=O)C[C@@H]1O [Compound 74, 4-amino-5-fluoro-1-((2R,4S,5R)-4-hydroxy-5-(hydroxymethyl)-5-vinyltetrahydrofuran-2-yl)pyrimidin-2(1H)-one]	> 100	> 100	> 1	> 100
C=C[C@]1(CO)O[C@@H](n2cc(F)c(N)nc2=O)[C@@H](O)[C@@H]1O [Compound 75, 4-amino-1-((2R,3S,4S,5R)-3,4-dihydroxy-5-(hydroxymethyl)-5-vinyltetrahydrofuran-2-yl)-5-fluoropyrimidin-2(1H)-one]	> 100	> 100	> 1	> 100
C=C[C@]1(CO)O[C@@H](n2cc(F)c(N)nc2=O)[C@@H](F)[C@@H]1O [Compound 76, 4-amino-1-[(2R,3S,4R,5R)-5-ethenyl-3-fluoro-4-hydroxy-5-(hydroxymethyl)oxolan-2-yl]-5-fluoropyrimidin-2-one]	1 to 10	> 100	> 1	1 to 10
CC[C@]1(CO)O[C@@H](n2cc(F)c(N)nc2=O)[C@@H](O)[C@@H]1O [Compound 78, 4-amino-1-((2R,3S,4S,5R)-5-ethyl-3,4-dihydroxy-5-(hydroxymethyl)tetrahydrofuran-2-yl)-5-fluoropyrimidin-2(1H)-one]	> 100	> 100	> 1	> 100
C=C[C@]1(CO)O[C@@H](n2cnc3c(N)nc(F)nc32)[C@@H](F)[C@@H]1O [Compound 80, (2R,3R,4S,5R)-5-(6-amino-2-fluoropurin-9-yl)-2-ethenyl-4-fluoro-2-(hydroxymethyl)oxolan-3-ol]	> 100	> 100	> 1	50 to 100
CC[C@]1(CO)O[C@@H](n2cnc3c(N)nc(F)nc32)[C@@H](F)[C@@H]1O [Compound 81, (2R,3R,4S,5R)-5-(6-amino-2-fluoropurin-9-yl)-2-ethyl-4-fluoro-2-(hydroxymethyl)oxolan-3-ol]	> 100	> 100	> 1	> 100
CC[C@]1(CO)O[C@@H](n2cc(F)c(N)nc2=O)C[C@@H]1O [Compound 82, 4-amino-1-((2R,4S,5R)-5-ethyl-4-hydroxy-5-(hydroxymethyl)-tetrahydrofuran-2-yl)-5-fluoropyrimidin-2(1H)-one]	> 100	> 100	> 1	> 100
[N-]=[N+]=N[C@]1(CO)O[C@@H](c2ccc3c(N)ncnn23)C[C@@H]1O [Compound 92, (2R,3S,5R)-5-(4-aminopyrrolo[2,1-f][1,2,4]triazin-7-yl)-2-azido-2-(hydroxymethyl) tetrahydrofuran-3-ol]	1 to 10	1 to 10	> 1	< 1
C[C@]1(CO)O[C@@H](n2ccc(N)nc2=O)C[C@@H]1O [Compound 106, 4-amino-1-((2R,4S,5R)-4-hydroxy-5-(hydroxymethyl)-5-methyltetrahydrofuran-2-yl)pyrimidin-2(1H)-one]	< 1	< 1	0.25 to 1	< 1
C#C[C@]1(CO)O[C@@H](n2cc(F)c(N)nc2=O)C[C@@H]1O [Compound 107, 4-amino-1-((2R,4S,5R)-5-ethynyl-4-hydroxy-5-(hydroxymethyl)tetrahydro-furan-2-yl)-5-fluoropyrimidin-2(1H)-one]	> 100	> 100	> 1	> 100
[N-]=[N+]=N[C@]1(CO)O[C@@H](n2cnc3c(=O)[nH]c(N)nc32)C[C@@H]1O [Compound 108, 2-amino-9-((2R,4S,5R)-5-azido-4-hydroxy-5-(hydroxymethyl)tetrahydro-furan-2-yl)-1,9-dihydro-6H-purin-6-one]	10 to 50	1 to 10	0.25 to 1	1 to 10
C=C[C@]1(CO)O[C@@H](n2cnc3c(N)nc(F)nc32)C[C@@H]1O [Compound 109, (2R,3S,5R)-5-(6-amino-2-fluoro-9H-purin-9-yl)-2-(hydroxymethyl)-2-vinyltetrahydrofuran-3-ol]	1 to 10	1 to 10	> 1	1 to 10
Nc1ccn([C@H]2C[C@H](O)[C@](CO)(C(F)F)O2)c(=O)n1 [Compound 110, 4-amino-1-((2R,4S,5R)-5-(difluoromethyl)-4-hydroxy-5-(hydroxymethyl)-tetrahydrofuran-2-yl)pyrimidin-2(1H)-one]	> 100	> 100	> 1	> 100
Nc1ccn([C@@H]2O[C@H](CO)[C@@H](O)C2(F)F)c(=O)n1 [Compound 111, 4-amino-1-((2R,4R,5R)-3,3-difluoro-4-hydroxy-5-(hydroxymethyl)tetrahydro-furan-2-yl)pyrimidin-2(1H)-one]	< 1	< 1	0.05 to 0.1	< 1
C#C[C@]1(CO)O[C@@H](n2cc(F)c(N)nc2=O)[C@@H](F)[C@@H]1O [Compound 112, 4-amino-1-((2R,3S,4R,5R)-5-ethynyl-3-fluoro-4-hydroxy-5-(hydroxymethyl)tetrahydrofuran-2-yl)-5-fluoropyrimidin-2(1H)-one]	< 1	> 100	> 1	< 1

Reference: US12187758B2 (ROME Therapeutics, Inc., priority 2022, dated 2025)
